In paper PMC5218480 (PLoS ONE, 2017):

System: MV-4-11 cells
Assay: Gene expression microarray analysis (Affymetrix PrimeView) and GSEA
Type: cell-based, human
Set-up: RFU PODN (11730768_x_at) / Fold change /veh PODN (11730768_x_at) / RFU LINC00158 (11744669_a_at) / Fold change /veh LINC00158 (11744669_a_at) / RFU DUSP10 (11751237_a_at) / Fold change /veh DUSP10 (11751237_a_at) / RFU ID3 (11757404_x_at) / Fold change /veh ID3 (11757404_x_at) / RFU PLEKHG5 (11737974_s_at) / Fold change /veh PLEKHG5 (11737974_s_at) / RFU LRRC4B (11730491_at) / Fold change /veh LRRC4B (11730491_at) / RFU GIMAP4 (11747438_a_at) / Fold change /veh GIMAP4 (11747438_a_at) / RFU KRT8 (11758183_x_at) / Fold change /veh KRT8 (11758183_x_at) / RFU CNN1 (11734310_a_at) / Fold change /veh CNN1 (11734310_a_at) / RFU VPS37D (11726825_at) / Fold change /veh VPS37D (11726825_at) / RFU C10orf10 (11716522_x_at) / Fold change /veh C10orf10 (11716522_x_at) / RFU KIR2DL2 /// KIR2DL4 /// KIR2DL5A /// KIR2DL5B /// KIR2DS1 /// KIR2DS2 /// KIR2DS3 /// KIR2DS4 /// KIR3DL3 /// KIR3DL3 /// KIR3DS1 (11738374_at) / Fold change /veh KIR2DL2 /// KIR2DL4 /// KIR2DL5A /// KIR2DL5B /// KIR2DS1 /// KIR2DS2 /// KIR2DS3 /// KIR2DS4 /// KIR3DL3 /// KIR3DL3 /// KIR3DS1 (11738374_at) / RFU C1QL1 (11718748_at) / Fold change /veh C1QL1 (11718748_at) / RFU TMPRSS4 (11747572_a_at) / Fold change /veh TMPRSS4 (11747572_a_at) / RFU HAMP (11756126_x_at) / Fold change /veh HAMP (11756126_x_at) / RFU RNFT2 (11725882_a_at) / Fold change /veh RNFT2 (11725882_a_at) / RFU NR4A2 (11747474_a_at) / Fold change /veh NR4A2 (11747474_a_at) / RFU ABCC12 (11746883_a_at) / Fold change /veh ABCC12 (11746883_a_at) / RFU TMEM136 (11760407_x_at) / Fold change /veh TMEM136 (11760407_x_at) / RFU CLDN22 /// WWC2 (11732394_at) / Fold change /veh CLDN22 /// WWC2 (11732394_at) / RFU HLA-DPB1 (11760878_x_at) / Fold change /veh HLA-DPB1 (11760878_x_at) / RFU SPINT1 (11716480_a_at) / Fold change /veh SPINT1 (11716480_a_at) / RFU GAP43 (11754022_s_at) / Fold change /veh GAP43 (11754022_s_at) / RFU A4GNT (11735810_at) / Fold change /veh A4GNT (11735810_at) / RFU PRB3 (11715151_x_at) / Fold change /veh PRB3 (11715151_x_at) / RFU TUBB4B (11761932_at) / Fold change /veh TUBB4B (11761932_at) / RFU CAPN14 (11732068_a_at) / Fold change /veh CAPN14 (11732068_a_at) / RFU TMCC2 (11721928_a_at) / Fold change /veh TMCC2 (11721928_a_at) / RFU IRGQ (11745062_a_at) / Fold change /veh IRGQ (11745062_a_at) / RFU FAM174B (11720279_a_at) / Fold change /veh FAM174B (11720279_a_at) / RFU TMPRSS4 (11748680_a_at) / Fold change /veh TMPRSS4 (11748680_a_at) / RFU FAM212B (11763350_a_at) / Fold change /veh FAM212B (11763350_a_at) / RFU PLEKHG5 (11743358_a_at) / Fold change /veh PLEKHG5 (11743358_a_at) / RFU ZSCAN30 (11745921_a_at) / Fold change /veh ZSCAN30 (11745921_a_at) / RFU CMKLR1 (11741424_a_at) / Fold change /veh CMKLR1 (11741424_a_at) / RFU LOC101060620 /// MAPK8IP1 (11723275_at) / Fold change /veh LOC101060620 /// MAPK8IP1 (11723275_at) / RFU SPTSSB (11747773_x_at) / Fold change /veh SPTSSB (11747773_x_at) / RFU PRSS12 (11739890_at) / Fold change /veh PRSS12 (11739890_at) / RFU BIN1 (11741810_x_at) / Fold change /veh BIN1 (11741810_x_at) / RFU WNT11 (11732464_a_at) / Fold change /veh WNT11 (11732464_a_at) / RFU C10orf10 (11716521_a_at) / Fold change /veh C10orf10 (11716521_a_at) / RFU C5orf56 (11738089_at) / Fold change /veh C5orf56 (11738089_at) / RFU CYB561 (11721691_x_at) / Fold change /veh CYB561 (11721691_x_at) / RFU ANKRD19P (11752326_a_at) / Fold change /veh ANKRD19P (11752326_a_at) / RFU OR2T12 /// OR2T33 /// OR2T8 (11738714_s_at) / Fold change /veh OR2T12 /// OR2T33 /// OR2T8 (11738714_s_at) / RFU VCAN (11748164_a_at) / Fold change /veh VCAN (11748164_a_at) / RFU JSRP1 (11732532_at) / Fold change /veh JSRP1 (11732532_at) / RFU KRTAP10-11 (11738290_x_at) / Fold change /veh KRTAP10-11 (11738290_x_at) / RFU MYO3A (11730013_a_at) / Fold change /veh MYO3A (11730013_a_at) / RFU EBF3 (11725865_a_at) / Fold change /veh EBF3 (11725865_a_at) / RFU CAMK2N1 (11719241_x_at) / Fold change /veh CAMK2N1 (11719241_x_at) / RFU C5orf56 (11738088_a_at) / Fold change /veh C5orf56 (11738088_a_at) / RFU OLFML3 (11715873_a_at) / Fold change /veh OLFML3 (11715873_a_at) / RFU LOC100653217 /// NTM (11731650_a_at) / Fold change /veh LOC100653217 /// NTM (11731650_a_at) / RFU MAPK11 (11762145_a_at) / Fold change /veh MAPK11 (11762145_a_at) / RFU FIZ1 (11724087_x_at) / Fold change /veh FIZ1 (11724087_x_at) / RFU OASL (11726364_x_at) / Fold change /veh OASL (11726364_x_at) / RFU SOX15 (11748057_x_at) / Fold change /veh SOX15 (11748057_x_at) / RFU CD79A (11719716_a_at) / Fold change /veh CD79A (11719716_a_at) / RFU HIST1H1D (11736915_at) / Fold change /veh HIST1H1D (11736915_at) / RFU CASKIN2 (11723855_a_at) / Fold change /veh CASKIN2 (11723855_a_at) / RFU LOC730098 (11760151_x_at) / Fold change /veh LOC730098 (11760151_x_at) / RFU OR4N2 (11742367_at) / Fold change /veh OR4N2 (11742367_at) / RFU PRRT2 (11749266_a_at) / Fold change /veh PRRT2 (11749266_a_at) / RFU SNX32 (11753110_a_at) / Fold change /veh SNX32 (11753110_a_at) / RFU CDHR5 (11726645_a_at) / Fold change /veh CDHR5 (11726645_a_at) / RFU RCAN1 (11760418_a_at) / Fold change /veh RCAN1 (11760418_a_at) / RFU FAM167A (11723789_a_at) / Fold change /veh FAM167A (11723789_a_at) / RFU FAM26E (11764081_at) / Fold change /veh FAM26E (11764081_at) / RFU ISYNA1 (11749810_s_at) / Fold change /veh ISYNA1 (11749810_s_at) / RFU ACY1 (11761880_at) / Fold change /veh ACY1 (11761880_at) / RFU 11764098_at / Fold change /veh 11764098_at / RFU SAMD14 (11745864_x_at) / Fold change /veh SAMD14 (11745864_x_at) / RFU NPB (11741838_a_at) / Fold change /veh NPB (11741838_a_at) / RFU TMPRSS6 (11731388_a_at) / Fold change /veh TMPRSS6 (11731388_a_at) / RFU KRTAP10-2 (11738614_at) / Fold change /veh KRTAP10-2 (11738614_at) / RFU ARHGAP8 /// PRR5-ARHGAP8 (11727945_x_at) / Fold change /veh ARHGAP8 /// PRR5-ARHGAP8 (11727945_x_at) / RFU KRTAP5-7 /// NADSYN1 (11734609_at) / Fold change /veh KRTAP5-7 /// NADSYN1 (11734609_at) / RFU RASL12 (11751679_a_at) / Fold change /veh RASL12 (11751679_a_at) / RFU CDKN2B (11736163_a_at) / Fold change /veh CDKN2B (11736163_a_at) / RFU PRF1 (11729649_at) / Fold change /veh PRF1 (11729649_at) / RFU, ZNF638 /// ZNF638-IT1 / Fold change vs veh, ZNF638 /// ZNF638-IT1 / RFU, PANK3 / Fold change vs veh, PANK3 / RFU, SH3YL1 / Fold change vs veh, SH3YL1 / RFU, ZEB2 / Fold change vs veh, ZEB2 / RFU, NRIP1 / Fold change vs veh, NRIP1 / RFU, PTTG1IP / Fold change vs veh, PTTG1IP / RFU, CAPN2 / Fold change vs veh, CAPN2 / RFU, MED14 / Fold change vs veh, MED14 / RFU, SNORA58 / Fold change vs veh, SNORA58 / RFU, C1orf63 / Fold change vs veh, C1orf63 / RFU, LRRFIP1 / Fold change vs veh, LRRFIP1 / RFU, NDUFAF7 / Fold change vs veh, NDUFAF7 / RFU, SLC12A2 / Fold change vs veh, SLC12A2 / RFU, IBTK / Fold change vs veh, IBTK / RFU, ESF1 / Fold change vs veh, ESF1 / Fold change vs veh, TMEM50B / RFU, TAOK1 / Fold change vs veh, TAOK1 / RFU, ACBD3 / Fold change vs veh, ACBD3 / RFU, TMA16 / Fold change vs veh, TMA16 / RFU, RWDD3 / Fold change vs veh, RWDD3 / RFU, BCAT1 / Fold change vs veh, BCAT1 / RFU, EDEM3 / Fold change vs veh, EDEM3 / RFU, TMEM33 / Fold change vs veh, TMEM33 / RFU, WDR75 / Fold change vs veh, WDR75 / RFU, AHCTF1 / Fold change vs veh, AHCTF1 / RFU, TFRC / Fold change vs veh, TFRC / RFU, ZDHHC17 / Fold change vs veh, ZDHHC17 / RFU, NOM1 / Fold change vs veh, NOM1 / RFU, ARL8B / Fold change vs veh, ARL8B / RFU, ZBTB11 / Fold change vs veh, ZBTB11 / RFU, TAMM41 / Fold change vs veh, TAMM41 / RFU, KIAA1704 /// LOC100996395 / Fold change vs veh, KIAA1704 /// LOC100996395 / RFU, ING1 / Fold change vs veh, ING1 / RFU, TRMT61B / Fold change vs veh, TRMT61B / RFU, FUBP3 / Fold change vs veh, FUBP3 / RFU, TP53 / Fold change vs veh, TP53 / RFU, TNKS2 / Fold change vs veh, TNKS2 / RFU, ZFP14 / Fold change vs veh, ZFP14 / RFU, ACTR2 / Fold change vs veh, ACTR2 / RFU, PPP3R1 / Fold change vs veh, PPP3R1 / RFU, PIK3R1 / Fold change vs veh, PIK3R1 / RFU, HNRNPA1 / Fold change vs veh, HNRNPA1 / RFU, RNF170 / Fold change vs veh, RNF170 / RFU, ZNF28 / Fold change vs veh, ZNF28 / RFU, RNGTT / Fold change vs veh, RNGTT / RFU, OGT / Fold change vs veh, OGT / RFU, BRD1 / Fold change vs veh, BRD1 / RFU, MARS / Fold change vs veh, MARS / RFU, ZNF655 / Fold change vs veh, ZNF655 / RFU, FAHD1 / Fold change vs veh, FAHD1 / RFU, BDP1 / Fold change vs veh, BDP1 / RFU, LRRCC1 / Fold change vs veh, LRRCC1 / RFU, ARID1A / Fold change vs veh, ARID1A / RFU, ZNF146 / Fold change vs veh, ZNF146 / RFU, ZNF330 / Fold change vs veh, ZNF330 / RFU, GPN3 / Fold change vs veh, GPN3 / RFU, C9orf123 / Fold change vs veh, C9orf123 / RFU, N4BP2L2 / Fold change vs veh, N4BP2L2 / RFU, ARFIP1 / Fold change vs veh, ARFIP1 / RFU, FAM179B / Fold change vs veh, FAM179B / RFU, BCL10 / Fold change vs veh, BCL10 / RFU, UHRF1BP1L / Fold change vs veh, UHRF1BP1L / RFU, BET1 / Fold change vs veh, BET1 / RFU, CNOT2 / Fold change vs veh, CNOT2 / RFU, ZNF268 / Fold change vs veh, ZNF268 / Fold change vs veh, ZNF507 / RFU, DGCR2 / Fold change vs veh, DGCR2 / RFU, WDSUB1 / Fold change vs veh, WDSUB1 / Fold change vs veh, HSP90B1 /// MIR3652 / RFU, ADSS / Fold change vs veh, ADSS / RFU, GK / Fold change vs veh, GK / RFU, ZNF148 / Fold change vs veh, ZNF148 / RFU, TAF9 / Fold change vs veh, TAF9 / RFU, SLC1A5 / Fold change vs veh, SLC1A5 / RFU, SLMO2 / Fold change vs veh, SLMO2 / RFU, ABCC4 / Fold change vs veh, ABCC4 / RFU, LOC101060439 /// RAP1B / Fold change vs veh, LOC101060439 /// RAP1B / RFU, RFX7 / Fold change vs veh, RFX7 / RFU, GTPBP10 / Fold change vs veh, GTPBP10 / RFU, CNEP1R1 / Fold change vs veh, CNEP1R1 / RFU, BIVM-ERCC5 /// ERCC5 / Fold change vs veh, BIVM-ERCC5 /// ERCC5 / RFU, ILF3 / Fold change vs veh, ILF3 / RFU 11762660_at / Fold change /veh 11762660_at / RFU VCAN (11757783_s_at) / Fold change /veh VCAN (11757783_s_at) / RFU DDX43 (11728927_at) / Fold change /veh DDX43 (11728927_at) / RFU KRT8 (11758188_x_at) / Fold change /veh KRT8 (11758188_x_at) / RFU NKD1 (11759106_at) / Fold change /veh NKD1 (11759106_at) / RFU SRD5A1 (11742802_a_at) / Fold change /veh SRD5A1 (11742802_a_at) / RFU TPSAB1 /// TPSB2 (11721975_s_at) / Fold change /veh TPSAB1 /// TPSB2 (11721975_s_at) / RFU GSTM3 (11746129_a_at) / Fold change /veh GSTM3 (11746129_a_at) / RFU IL23R (11737362_x_at) / Fold change /veh IL23R (11737362_x_at) / RFU TMEM51 (11727254_a_at) / Fold change /veh TMEM51 (11727254_a_at) / RFU PIWIL2 (11732686_x_at) / Fold change /veh PIWIL2 (11732686_x_at) / RFU ORM1 (11744905_x_at) / Fold change /veh ORM1 (11744905_x_at) / RFU CCDC152 (11743942_at) / Fold change /veh CCDC152 (11743942_at) / RFU ECM1 (11717891_a_at) / Fold change /veh ECM1 (11717891_a_at) / RFU IL23R (11748794_a_at) / Fold change /veh IL23R (11748794_a_at) / RFU TNFAIP8L3 (11732012_x_at) / Fold change /veh TNFAIP8L3 (11732012_x_at) / RFU MBOAT4 (11741988_at) / Fold change /veh MBOAT4 (11741988_at) / RFU 11764193_at / Fold change /veh 11764193_at / RFU TMEM53 (11763286_at) / Fold change /veh TMEM53 (11763286_at) / RFU MAGEB2 (11727129_at) / Fold change /veh MAGEB2 (11727129_at) / RFU TMEM200A (11744735_a_at) / Fold change /veh TMEM200A (11744735_a_at) / RFU CCDC152 (11751479_a_at) / Fold change /veh CCDC152 (11751479_a_at) / RFU FAM211A (11726209_a_at) / Fold change /veh FAM211A (11726209_a_at) / RFU RGS16 (11746705_a_at) / Fold change /veh RGS16 (11746705_a_at) / RFU VCAN (11755009_s_at) / Fold change /veh VCAN (11755009_s_at) / RFU RHOB (11743442_s_at) / Fold change /veh RHOB (11743442_s_at) / RFU RGS16 (11720943_a_at) / Fold change /veh RGS16 (11720943_a_at) / RFU RGS16 (11720944_at) / Fold change /veh RGS16 (11720944_at) / RFU, VPS4B / Fold change vs veh, VPS4B / RFU, CREB1 / Fold change vs veh, CREB1 / RFU, DNAJC13 / Fold change vs veh, DNAJC13 / RFU, GNAQ / Fold change vs veh, GNAQ / RFU, CDK5R1 / Fold change vs veh, CDK5R1 / RFU, ZRANB3 / Fold change vs veh, ZRANB3 / RFU, CUL4A / Fold change vs veh, CUL4A / RFU, CCNY / Fold change vs veh, CCNY / RFU, UFL1 / Fold change vs veh, UFL1 / RFU, COG3 / Fold change vs veh, COG3 / RFU, DIAPH2 / Fold change vs veh, DIAPH2 / RFU, SKA2 / Fold change vs veh, SKA2 / RFU, AFF3 / Fold change vs veh, AFF3 / RFU, LMF1 / Fold change vs veh, LMF1 / RFU, IPO11 / Fold change vs veh, IPO11 / RFU, DFFB / Fold change vs veh, DFFB / RFU, FOXP1 / Fold change vs veh, FOXP1 / RFU, CARD8 / Fold change vs veh, CARD8 / RFU, STRN3 / Fold change vs veh, STRN3 / RFU, ADK / Fold change vs veh, ADK / RFU, RASSF2 / Fold change vs veh, RASSF2 / RFU, WIPF1 / Fold change vs veh, WIPF1 / RFU, LARP1B / Fold change vs veh, LARP1B / RFU, RASA1 / Fold change vs veh, RASA1 / RFU, RB1 / Fold change vs veh, RB1 / RFU, PPFIA1 / Fold change vs veh, PPFIA1 / RFU, MAT2A / Fold change vs veh, MAT2A / RFU, CCT5 / Fold change vs veh, CCT5 / RFU, WDR92 / Fold change vs veh, WDR92 / RFU, CUX1 / Fold change vs veh, CUX1 / RFU, TTC7A / Fold change vs veh, TTC7A / RFU, TMEM135 / Fold change vs veh, TMEM135 / RFU, DEPTOR / Fold change vs veh, DEPTOR / RFU, CPM / Fold change vs veh, CPM / RFU, DNAJB6 / Fold change vs veh, DNAJB6 / RFU, CACNA2D3 / Fold change vs veh, CACNA2D3 / RFU, DTX4 / Fold change vs veh, DTX4 / RFU, TFCP2 / Fold change vs veh, TFCP2 / RFU, GMCL1 /// GMCL1P1 / Fold change vs veh, GMCL1 /// GMCL1P1 / RFU, AEBP2 / Fold change vs veh, AEBP2 / RFU, SNHG1 /// SNORD22 /// SNORD25 /// SNORD26 /// SNORD27 /// SNORD28 /// SNORD29 /// SNORD31 / Fold change vs veh, SNHG1 /// SNORD22 /// SNORD25 /// SNORD26 /// SNORD27 /// SNORD28 /// SNORD29 /// SNORD31 / Fold change (Aza/veh), C12orf56 (ProbeSet 11735607_a_at) / Fold change (ACY-1035/veh), C12orf56 (ProbeSet 11735607_a_at) / Fold change (Aza/veh), FGFR1OP (ProbeSet 11751329_s_at) / Fold change (ACY-1035/veh), FGFR1OP (ProbeSet 11751329_s_at) / Fold change (Aza/veh), VPS36 (ProbeSet 11739960_a_at) / Fold change (ACY-1035/veh), VPS36 (ProbeSet 11739960_a_at) / RFU SYPL1 (11715823_x_at) / Fold change /veh SYPL1 (11715823_x_at) / RFU IGFBP7 (11715501_s_at) / Fold change /veh IGFBP7 (11715501_s_at) / RFU REEP3 (11722064_at) / Fold change /veh REEP3 (11722064_at) / RFU IGLL1 (11728026_x_at) / Fold change /veh IGLL1 (11728026_x_at): dose or concentration left out as unconfirmed
Settings: MV-4-11 cells, 48 hours

Nc1ccc(-c2cccs2)cc1NC(=O)c1ccc2c(c1)cc(C1CC1)n2CCN1CCOCC1 [ACY-1035]
Fold change /veh ORM1 (11744905_x_at): 1.11
